From US7744921B2, “Liposome loading with metal ions” (Celator Pharmaceuticals, Inc., priority 2001, dated 2010)

Tests used:
[1] = Effect of buffer composition on precipitation of metal ion (20 mM histidine, triethanolamine to pH 7.4, visual inspection); format: physicochemical; design: key: ppt: represents that the formation of a precipitate occurred after the addition of triethanolamine within a time course of 10 minutes; no ppt: represents that the formation of a precipitate did not occur after addition of triethanolamine to achieve a pH of 7.4 and within a time course of 10 minutes; settings: pH 7.4, 10 minutes
[2] = Drug-to-lipid ratio of passively encapsulated first drug before/after loading of second drug; settings: DSPC/DSPG (80:20)
Procedure: Prior to measurement of absorbance, liposomes were solubilized in a solution containing Triton X-100.
Samples were extruded and external buffers exchanged into SHE, pH 7.4, using a hand-held tangential flow dialysis column. […] Atomic absorption spectrometry (AA) was used to determine carboplatin concentrations and absorbance at 370 nm was measured to determine irinotecan concentrations.

[3] = Active (metal-based, citrate or ionophore) loading of drug into liposomes; spin column, drug-to-lipid ratio; format: physicochemical; settings: for loading efficiency: 300 mM MnSO4, 37° C.
Procedure: Lipids were dissolved in chloroform solution and subsequently dried under a stream of nitrogen gas and placed in a vacuum pump to remove solvent. Unless otherwise specified, trace levels of radioactive lipid 3H-CHE were added to quantify lipid during the formulation process. The resulting lipid film was placed under high vacuum for a minimum of 2 hours. The lipid film was hydrated in the solution indicated to form multilamellar vesicles (MLVs). The resulting preparation was extruded 10 times through stacked polycarbonate filters with an extrusion apparatus (Lipex Biomembranes, Vancouver, BC) to achieve a mean liposome size between 80 and 150 nm. All constituent lipids of liposomes are reported in mole %.
At various time points after initiation of drug loading, aliquots were removed and passed through a Sephadex G-50 spin column to separate free from encapsulated drug. To a specified volume of eluant, Triton X-100 or N-ocyl beta-D-glucopyranoside (OGP) was added to solubilize the liposomes. Following addition of detergent, the mixture was heated to the cloud point of the detergent and allowed to cool to room temperature before measurement of the absorbance or fluorescence. Drug concentrations were calculated by comparison to a standard curve.
In order to determine whether copper loading of irinotecan in the absence of a pH gradient could occur using a cholesterol-free formulation, DSPC/DSPG (80:20 mole ratio) liposomes containing copper(II) gluconate were prepared with an external and internal pH of 7.4. […] The lipid films were hydrated in 100 mM Cu(II) gluconate adjusted to pH 7.4 with triethanolamine (TEA) and extruded at 70° C. […] Irinotecan was added to the liposome preparation at a 0.1:1 drug-to-lipid mole ratio and incubated at 50° C. The extent of drug loading was determined as described in the methods by measuring absorbance at 370 nm and lipid levels were determined by liquid scintillation counting.
Loading of daunorubicin into DSPC/DSPG (90:10 mole ratio) liposomes containing encapsulated CuSO4 buffered to pH 7.4 was also investigated. […] A solution of 150 mM CuSO4, 20 mM histidine (adjusted to pH 7.4 using TEA), was employed as the hydration medium and MLVs were extruded at 70° C. […] Daunorubicin was loaded at a 0.1:1 drug/lipid weight ratio. A drug-to-lipid ratio at various time points during loading was determined by measuring absorbance at 480 nm after solubilization in detergent to quantify daunorubicin as described; lipid levels were determined by liquid scintillation counting.
The liposomes were prepared as described in the methods by hydrating lipid films in a solution of 100 mM copper(II) gluconate adjusted to pH 7.4 with TEA. Liposomes were extruded at 65° C. and the external buffer of the liposomes was exchanged to SHE, pH 7.4 by tangential flow dialysis. Liposomes were incubated with irinotecan at a 0.1:1 drug-to-lipid weight ratio at 50° C. and the extent of drug loading was determined as described by measuring absorbance at 370 nm after solubilization by detergent.
In addition to copper loading, loading of drug using MnSO4 containing liposomes in the absence of a pH gradient was also investigated. […] Lipids films were prepared as described and hydrated in 300 mM MnSO4 buffered to pH 7.4 with 20 mM imidazole (initial pH was adjusted to 7.4 with concentrated HCl) and extrusion was carried out at 70° C. The samples were run down a Sephadex G-50 column to exchange the exterior buffer with SHE, pH 7.4.

[4] = as above; format: physicochemical; settings: for sequential loading of two drugs into a single liposome (in words): 300 mM CuSO4, 60° C., irinotecan 0.2:1 then doxorubicin 0.15:1 mole ratio
[5] = 150 mM metal in 20 mM histidine
[6] = 300 mM metal in 20 mM histidine
[7] = DPPC/DSPE-PEG2000 (95:5), pH gradient citrate loading (300 mM citrate, pH 4.0), 37° C.

[Cd] [Cadmium]
precipitation after addition of triethanolamine: Chloride [1, 5]: ppt
precipitation after addition of triethanolamine: Sulfate [1, 5]: no ppt
precipitation after addition of triethanolamine: Chloride [1, 6]: ppt
precipitation after addition of triethanolamine: Sulfate [1, 6]: no ppt

[Mn+2] [Manganese]
precipitation after addition of triethanolamine: Chloride [1, 5]: ppt
precipitation after addition of triethanolamine: Sulfate [1, 5]: no ppt
precipitation after addition of triethanolamine: Chloride [1, 6]: ppt
precipitation after addition of triethanolamine: Sulfate [1, 6]: no ppt

N.N.O=C([O-])C1(C(=O)[O-])CCC1.[Pt+2] [carboplatin]
carboplatin drug-to-lipid weight ratio after loading of irinotecan ([2]; 150 mM CuSO4 pH 7.4, irinotecan loaded at 60° C.): 0.025
initial carboplatin drug-to-lipid weight ratio ([2]; 150 mM CuSO4 pH 7.4, passively encapsulated): 0.030

COc1cccc2c1C(=O)c1c(O)c3c(c(O)c1C2=O)C[C@@](O)(C(=O)CO)C[C@@H]3O[C@H]1C[C@H](N)[C@H](O)[C@H](C)O1 [doxorubicin]
time to essentially complete loading ([3]; DMPC/Chol (55:45), 300 mM citrate pH 3.5, external HBS, 60° C., weight ratio 0.2:1): ≤ 5 min
loading efficiency ([3]; DPPC/DSPE-PEG2000 (95:5), initial drug/lipid weight ratio 0.1:1): > 95%
loading efficiency ([3]; DPPC/DSPE-PEG2000 (95:5), initial drug/lipid weight ratio 0.2:1): > 90%
encapsulation efficiency as doxorubicin/lipid weight ratio increased from 0.1 to 0.3 (in words) [3, 7]: substantial reduction in encapsulation efficiency
added drug encapsulated ([3]; DSPC/Chol (55:45), 300 mM CoCl2, SHE pH 7.5, weight ratio 0.1:1, 60° C., within 10 minutes): > 90%
leakage during vincristine encapsulation (in words) ([3]; DSPC/Chol (55:45), 300 mM MnSO4, doxorubicin preloaded at 0.2:1 wt/wt, vincristine loading at 50° C.): no significant leakage
accumulation relative to MnSO4 and citrate loading (in words) ([4]; DMPC/Chol (55:45), 300 mM MnCl2, external SHE pH 7.5, 60° C., weight ratio 0.2:1): less complete
time to essentially complete loading ([4]; DMPC/Chol (55:45), 300 mM MnSO4, external SHE pH 7.5, 60° C., weight ratio 0.2:1): ≤ 5 min
loading efficiency ([4]; DPPC/DSPE-PEG2000 (95:5), 300 mM MnSO4, 37° C., initial drug/lipid weight ratio 0.3:1): > 80%
maximum drug-to-lipid weight ratio achieved [4, 7]: < 0.075
sequential loading of two drugs into a single liposome (in words) ([4]; DSPC/Chol (55:45)): efficiently loaded

COc1cccc2c1C(=O)c1c(O)c3c(c(O)c1C2=O)C[C@@](O)(C(=O)CO)C[C@@H]3O[C@H]1C[C@H](N)[C@@H](O)[C@H](C)O1 [epirubicin]
loading (in words) ([3]; DSPC/DSPE-PEG2000 (95:5), 300 mM MnSO4, 20 mM imidazole pH 7.4 internal, SHE pH 7.4 external, no pH gradient, 60° C., weight ratio 0.2:1): efficient encapsulation of drug occurred at each time point measured
drug accumulation ([4]; DSPC/DSPE-PEG2000 (95:5), 300 mM CuSO4, SHE pH 7.4, weight ratio 0.2:1, 60° C., within 5 minutes): > 95%

CCc1c2c(nc3ccc(OC(=O)N4CCC(N5CCCCC5)CC4)cc13)-c1cc3c(c(=O)n1C2)COC(=O)[C@]3(O)CC [irinotecan]
time to almost complete loading ([3]; DPPC/Chol (55:45), 100 mM Cu(II) gluconate pH 7.4 internal, SHE pH 7.4 external, no pH gradient, 50° C., weight ratio 0.1:1): about 60 minutes
loading complete ([3]; DSPC/DSPE-PEG2000 (95:5), 300 mM MnSO4, SHE pH 7.4, 60° C., weight ratio 0.1:1, 30-minute time point): 10%
time to essentially complete loading ([3]; DSPC/DSPG (80:20) liposomes, 100 mM Cu(II) gluconate pH 7.4 (TEA) internal, SHE pH 7.4 external, no pH gradient, 50° C., drug-to-lipid mole ratio 0.1:1): ≤ 5 min
loading after chelation column versus after exchange into EDTA-containing solution (in words) ([3]; DSPC/DSPG (80:20), 150 mM copper gluconate pH 7.4, 37, 50 and 60° C., weight ratio 0.1:1): comparable
sequential loading of two drugs into a single liposome (in words) ([4]; DSPC/Chol (55:45)): efficiently loaded
encapsulation ([4]; DSPC/Chol (55:45), 300 mM CuSO4, SHE pH 7.5, drug-to-lipid mole ratio 0.2:1, 60° C., loaded first): approximately 100%
loading ([4]; DSPC/DSPE-PEG2000 (95:5), 300 mM CuSO4, SHE pH 7.4, 60° C., weight ratio 0.1:1, within 5 minutes): greater than 95%
loading (in words) ([4]; DSPC/DSPG (80:20), 150 mM CuSO4 pH 7.4, exchanged into solution not containing a chelating agent, 37, 50 and 60° C., weight ratio 0.1:1): reduced rate
loading (in words) ([4]; DSPC/DSPG (80:20), 150 mM CuSO4 pH 7.4, passed through Chelex-100 column, 37, 50 and 60° C., weight ratio 0.1:1): enhanced
loading (in words) ([4]; FUDR-containing DSPC/Chol/DSPG (70:10:20), 100 mM Cu(II) gluconate, 220 mM TEA pH 7.4, external HBS or sucrose/HEPES pH 7.4, 50° C., mole ratio 0.1:1): efficiently loads
loading (in words) ([4]; FUDR-containing DSPC/DSPG (85:15), 100 mM Cu(II) gluconate, 220 mM TEA pH 7.4, external 300 mM sucrose, 20 mM HEPES pH 7.4, 50° C., mole ratio 0.1:1): efficient loading of the drug occurred throughout the time course of the experiment
loading (in words) ([4]; carboplatin-containing DSPC/DSPG (80:20), 150 mM CuSO4 pH 7.4, SHE pH 7.4 external, 60° C., weight ratio 0.1:1): loads to a high degree

CC[C@@]1(O)C(=O)OCc2c1cc1n(c2=O)Cc2cc3c(CN(C)C)c(O)ccc3nc2-1 [topotecan]
loading complete ([4]; DSPC/Chol (55:45), 300 mM CuSO4, SHE pH 7.4, weight ratio 0.1:1, 37° C., within 30 minutes): > 95%

CC[C@]1(O)C[C@H]2CN(CCc3c([nH]c4ccccc34)[C@@](C(=O)OC)(c3cc4c(cc3OC)N(C=O)[C@H]3[C@@](O)(C(=O)OC)[C@H](OC(C)=O)[C@]5(CC)C=CCN6CC[C@]43[C@@H]65)C2)C1 [vincristine]
incubation time to near maximum encapsulation ([3]; DSPC/Chol (55:45), 300 mM MnSO4, preloaded with doxorubicin, A23187 ionophore-mediated loading, 50° C., weight ratio 0.05:1): 40 min

Cobalt
precipitation after addition of triethanolamine: Chloride [1, 5]: no ppt
precipitation after addition of triethanolamine: Sulfate [1, 5]: no ppt
precipitation after addition of triethanolamine: Chloride [1, 6]: no ppt
precipitation after addition of triethanolamine: Sulfate [1, 6]: no ppt

Copper
precipitation after addition of triethanolamine: Chloride [1, 5]: no ppt
precipitation after addition of triethanolamine: Sulfate [1, 5]: no ppt
precipitation after addition of triethanolamine: Chloride [1, 6]: no ppt
precipitation after addition of triethanolamine: Nitrate [1, 6]: no ppt
precipitation after addition of triethanolamine: Sulfate [1, 6]: no ppt

Zinc
precipitation after addition of triethanolamine: Chloride [1, 5]: ppt
precipitation after addition of triethanolamine: Sulfate [1, 5]: ppt
precipitation after addition of triethanolamine: Chloride [1, 6]: ppt
precipitation after addition of triethanolamine: Sulfate [1, 6]: ppt
